Assay: Aquatic toxicity according to Method 2007
Details: in vivo, Mysidopsis Bahia
Source text: (References: OECD Guideline for the Testing of Chemicals: BG1Luc Estrogen Receptor Transactivation Test Method for Identifying Estrogen Receptor Agonists and Antagonists, OECD Guidelines for the Testing of Chemicals, Section 4, OECD Publishing, Paris, https://doi.org/10.1787/9789264185395-en, and http://ntp.niehs.nih.gov/ntp/about_ntp/sacatm/2012/september/d_draft_oecdtg457bg1luc_508.pdf; and G. Bittner, M. Denison, C. Yang, M. Stoner and G. He, Environmental Health 2014, 13 103). They were also tested for aquatic toxicity according to Method 2007 using Mysidopsis Bahia.

## CCCCCCCCCCCCCCCC[N+](C)(C)C [CTAB, cetyl trimethyl ammonium bromide]
  LC50 at 96 h: 0.2 µg/mL

From US11724981B2, “Cationic surfactants comprising an ether link” (Battelle Memorial Institute, priority 2018, dated 2023)
